{"source": "patent US8355877B2", "about": "“System for predicting responsiveness to a pharmaceutical therapy for obesity” (priority 2007, dated 2013)", "key": {"[1]": {"system": "DIO-LE rats maintained on a high fat chow", "test": "Cross therapeutic target rat study: reduction of TRL V6 concentration (NMR LipoProfile) after an acute dose", "format": "in vivo", "description": "(§1) As a typical example, whole blood samples are collected into 2 ml EDTA blood collection tubes, inverted several times to mix well, and placed on ice. The samples are then centrifuged at approximately 3000 rpm for 10-15 minutes at 4° C. Upon completion of centrifugation, the tube is placed on ice and the plasma is drawn off. The plasma is place into a polypropylene tube and kept at 4° C. until analysis. Samples may be analyzed at any time up to about 4 days after collection. Samples are analyzed for TRL V6 response, as for example by NMR plasma lipoprotein analysis, as for example, the NMR LipoProfile®, the NMR LipoProfile®-II or the NMR LipoProfile®-III lipoprotein tests provided by LipoScience, Inc. of Raleigh, N.C.\n(§2) NMR spectral data is analyzed as described in Jeyarajah et al., supra. Lipoprotein subclass concentrations are reported in lipid mass concentration units (TRL subclasses in units of mg/dL triglyceride) or, alternatively, in particle concentration units of nmol/L (nanomoles of particles per liter). The source information (NMR signal amplitude of each subclass) is transformed into these mass or particle concentration units by the analysis software, using a set of conversion factors obtained from chemical lipid and NMR analyses of isolated chylomicron, VLDL, LDL, and HDL subclass standards of normal lipid composition.\nThe ability of investigational weight loss pharmaceutical agents to reduce the TRL V6 concentration in rats is shown with three compounds targeting different mechanisms of action including a known potent and selective 5-HT2C receptor agonist, a known potent and selective CB-1 receptor antagonist/inverse agonist, and a potent SNDRI (sibutramine). Each of these compounds are known to induce weight loss in rats and thus the biomarker of reduction in TRL V6 concentration correlates to the investigational weight loss pharmaceutical agents' ability to induce weight loss. Conversely, an opiate antagonist, (naltrexone) which is known to be ineffective in inducing weight loss in rats or in overweight and obese human subjects (Malcolm R et al., Int. J. Obes. 1985; 9(5):347-53), is shown to not reduce the TRL V6 concentration in rats, again correlating the biomarker of reduction in TRL V6 concentration to the investigational weight loss pharmaceutical agents' ability to induce weight loss.\nDIO-LE rats maintained on a high fat chow are administered either a vehicle dose or an acute dose of test compound. At specified time points post dose, animals are sacrificed and blood is collected in blood sample tubes containing EDTA and processed essentially as described above. Samples are analyzed by NMR LipoProfile® lipoprotein sub-particle test with report of all particle subtypes (specifically the TRL V6 concentration or particle number)."}, "[2]": {"system": "hypertriglyceridemic and overweight and obese but otherwise healthy subjects", "test": "Human study with a SNDRI (sibutramine): TRL response to fat load, single-blind crossover vs placebo, NMR LipoProfile III", "format": "in vivo", "description": "Note that where TRL V6 response can be equated with the response of a combination of subtypes, it is because the magnitude of the change in signal, which is due to the change of TRL V6 signal, is sufficiently large compared to the base line signal, to be a significant difference (i.e. the signal from TRL V6 in the base line signal dominates the combined signal so that a change in TRL V6 is reliably detected).\nas §1, §2\nA SNDRI (sibutramine) known to be able to induce weight loss in humans is tested to correlate its ability to reduce TRL V6 response plasma concentrations and V-TRL response in humans in an exploratory biomarker study employing a single-blind, crossover design, comparing sibutramine and placebo in hypertriglyceridemic and overweight and obese but otherwise healthy subjects.\nThree cohorts containing 6 subjects each, undergo three periods during the study. Subjects are fasted overnight and two fasting blood draws are obtained, followed by breakfast at approximately 07:00 hours. Placebo or sibutramine is administered at approximately 10:00 hours. Blood sampling is begun approximately 1 hr. after the start of breakfast and continues at hourly intervals for 7 hr., and then every 2 hr. for the next 10 hr. A lunch according to Example fat load 2 is served at approximately 12:00 hours (approximately 60 to 65 g of fat). No other food is permitted until 12 hr. post fat load administration. Subjects are released after the last blood sampling for a 4 to 8-day washout period before return for the second testing period of the study. After the washout period, subjects are again fasted overnight. The procedures are then repeated as in the first testing period of the study except that each subject crosses over to receive the alternate treatment, sibutramine or placebo. Blood samples are collected, processed and analyzed essentially as described in Example 1 above.\nTRL V6 responses and V-TRL responses are observed during the period from 5 to 11 hr. post fat load. […] In most subjects, the administration of sibutramine reduced the magnitude of the TRL V6 response and V-TRL response compared to their placebo-treated responses. Thus the reduction of the TRL V6 response and V-TRL response induced by the SNDRI correlates with the SNDRI known ability to induce weight loss in humans."}, "[3]": {"settings": "rats, 5-HT2C agonist 10 mg/kg, CB-1 antagonist 0.3 mg/kg, SNDRI 3 mg/kg, naltrexone 10 mg/kg oral"}, "[4]": {"settings": "5 hr. post dose, CB-1 antagonist 0.3 mg/kg, SNDRI 3 mg/kg, rats"}, "[5]": {"settings": "AUC 5-11 hr. post fat load vs placebo, humans"}, "[6]": {"settings": "AUC from lipid load vs placebo, Table 2"}}}
{"smiles": "O=C1CC[C@@]2(O)[C@H]3Cc4ccc(O)c5c4[C@@]2(CCN3CC2CC2)[C@H]1O5", "note": "[Naltrexone, naltrexone]", "values": [{"measurement": "TRL V6 level versus baseline at 18 hr. post dose", "setting": "[1]; 10 mg/kg oral, 18 hr. post dose, rats", "value": "unchanged"}, {"measurement": "effect on circulating TRL V6 levels", "setting": "[1]; 10 mg/kg orally administrated dose, rats", "value": "minimal effect"}, {"measurement": "time post dose at which TRL V6 plasma concentration returns to baseline", "setting": "[1]; [3]", "value": 5, "unit": "h"}]}
{"smiles": "CC(C)CC(N(C)C)C1(c2ccc(Cl)cc2)CCC1", "note": "(stereo not drawn) [Sibutramine, sibutramine]", "values": [{"measurement": "reduction of TRL V6 concentration", "setting": "[1]; 2 hr. post dose, 3 mg/kg, rats", "value": "about 78%"}, {"measurement": "reduction of circulating concentration of TRL V6", "setting": "[1]; 2 hr. post dose, 5-HT2C agonist 10 mg/kg, SNDRI 3 mg/kg, naltrexone 10 mg/kg oral, rats", "value": "about 78%"}, {"measurement": "reduction of TRL V6 concentration", "setting": "[1]; [4]", "value": "about 78%"}, {"measurement": "reduction of circulating concentration of TRL V6", "setting": "[1]; [4]", "value": "about 78%"}, {"measurement": "Reduction in TRL V6 Response, T1-(ie 2 hrs)", "setting": "[1]; T1 (ie 2 hrs) post dose, dose per compound in column Dose (10, 0.3, 3, 10 mg/kg), DIO-LE rats", "value": 78, "unit": "%"}, {"measurement": "Reduction in TRL V6 Response, T2-(ie 5 hrs)", "setting": "[1]; T2 (ie 5 hrs) post dose, dose per compound in column Dose, DIO-LE rats", "value": 78, "unit": "%"}, {"measurement": "Reduction in TRL V6 Response, T3-(ie 18 hrs)", "setting": "[1]; T3 (ie 18 hrs) post dose, dose per compound in column Dose, DIO-LE rats", "value": 0, "unit": "%"}, {"measurement": "time post dose at which TRL V6 plasma concentration returns to baseline", "setting": "[1]; [3]", "value": "≤ 18", "unit": "h"}, {"measurement": "change in mean V-TRL response", "setting": "[2]; [5]", "value": "statistically significant decrease"}, {"measurement": "change in the plasma concentrations of TRL V1, V2, V3, V4, or V5 subtypes", "setting": "[2]; [5]", "value": "does not show a significant change"}, {"measurement": "decrease in the TRL V6 response (AUC) vs placebo", "setting": "[2]; AUC 5-11 hr. post fat load, mixed effects model, statistically significant, humans", "value": "about 28%"}, {"measurement": "change in TRL V6+TRL V5", "setting": "[2]; [6]", "value": "did not produce a significant change"}, {"measurement": "change in TRL V6+TRL V5+chylomicrons", "setting": "[2]; [6]", "value": "did not produce a significant change"}, {"measurement": "change in TRL V6+chylomicrons", "setting": "[2]; [6]", "value": "showed a significant change"}, {"measurement": "effect on TRL V6 response", "setting": "[2]; [6]", "value": "reduced the TRL V6 response"}, {"measurement": "Sibutramine/Placebo Ratio of AUC, TRL V5", "setting": "[2]; TRL V5, AUC 5-11 hr. from lipid load, P 0.474", "value": 1.10}, {"measurement": "Geometric LS Mean of AUC, TRL V5", "setting": "[2]; TRL V5, AUC 5-11 hr. time points from lipid load, human plasma, NMR", "value": 222.34}, {"measurement": "Sibutramine/Placebo Ratio of AUC, TRL V6 + Chy", "setting": "[2]; TRL V6 + Chy, AUC 5-11 hr. from lipid load, P 0.004", "value": 0.81}, {"measurement": "Geometric LS Mean of AUC, TRL V6 + Chy", "setting": "[2]; TRL V6 + Chy, AUC 5-11 hr. time points from lipid load, human plasma, NMR", "value": 205.0}, {"measurement": "Sibutramine/Placebo Ratio of AUC, TRL V6 + TRL V5", "setting": "[2]; TRL V6 + TRL V5, AUC 5-11 hr. from lipid load, P 0.091", "value": 0.88}, {"measurement": "Geometric LS Mean of AUC, TRL V6 + TRL V5", "setting": "[2]; TRL V6 + TRL V5, AUC 5-11 hr. time points from lipid load, human plasma, NMR", "value": 364.08}, {"measurement": "Sibutramine/Placebo Ratio of AUC, TRL V6 + V5 + Chy", "setting": "[2]; TRL V6 + V5 + Chy, AUC 5-11 hr. from lipid load, P 0.110", "value": 0.89}, {"measurement": "Geometric LS Mean of AUC, TRL V6 + V5 + Chy", "setting": "[2]; TRL V6 + V5 + Chy, AUC 5-11 hr. time points from lipid load, human plasma, NMR", "value": 458.04}, {"measurement": "Sibutramine/Placebo Ratio of AUC, TRL V6", "setting": "[2]; TRL V6, AUC 5-11 hr. from lipid load, P 0.001", "value": 0.73}, {"measurement": "Geometric LS Mean of AUC, TRL V6", "setting": "[2]; TRL V6, AUC 5-11 hr. time points from lipid load, human plasma, NMR", "value": 119.35}, {"measurement": "Sibutramine/Placebo Ratio of AUC, Chy", "setting": "[2]; chylomicrons, AUC 5-11 hr. from lipid load, P 0.721", "value": 0.98}, {"measurement": "Geometric LS Mean of AUC, Chy", "setting": "[2]; chylomicrons, AUC 5-11 hr. time points from lipid load, human plasma, NMR", "value": 81.11}]}
